# Results as given in ChEMBL document CHEMBL3872249, “Computer design, synthesis, and bioactivity analyses of drugs like fingolimod used in the treatment of multiple sclerosis” (Bioorg Med Chem, 2017).
# Experiments:
# [1] = tested on: SH-SY5Y; test: Effect on STAT3 mRNA expression in human SH-SY5Y cells at EC10 by qPCR method relative to beta-actin; format: functional
# [2] = tested on: SK-N-SH; test: Effect on OPRD1 mRNA expression in human SK-N-SH cells at EC10 by qPCR method relative to beta-actin; format: functional
# [3] = tested on: SH-SY5Y; test: Effect on COL1A1 mRNA expression in human SH-SY5Y cells at EC10 by qPCR method relative to beta-actin; format: functional
# [4] = tested on: U-118-MG; test: Effect on MYC mRNA expression in human U118MG cells at EC10 by qPCR method relative to beta-actin; format: functional
# [5] = tested on: SH-SY5Y; test: Effect on CFLAR mRNA expression in human SH-SY5Y cells at EC10 by qPCR method relative to beta-actin; format: functional
# [6] = tested on: SK-N-SH; test: Effect on NFKB1 mRNA expression in human SK-N-SH cells at EC10 by qPCR method relative to beta-actin; format: functional
# [7] = tested on: SH-SY5Y; test: Effect on MYC mRNA expression in human SH-SY5Y cells at EC10 by qPCR method relative to beta-actin; format: functional
# [8] = tested on: SH-SY5Y; test: Effect on S1PR3 mRNA expression in human SH-SY5Y cells at EC10 by qPCR method relative to beta-actin; format: functional
# [9] = tested on: SK-N-SH; test: Effect on DRD2 mRNA expression in human SK-N-SH cells at EC10 by qPCR method relative to beta-actin; format: functional
# [10] = tested on: SK-N-SH; test: Effect on ADRB2 mRNA expression in human SK-N-SH cells at EC10 by qPCR method relative to beta-actin; format: functional
# [11] = tested on: U-118-MG; test: Effect on PIK3CG mRNA expression in human U118MG cells at EC10 by qPCR method relative to beta-actin; format: functional
# [12] = tested on: SH-SY5Y; test: Effect on TSHR mRNA expression in human SH-SY5Y cells at EC10 by qPCR method relative to beta-actin; format: functional
# [13] = tested on: U-118-MG; test: Effect on EDNRA mRNA expression in human U118MG cells at EC10 by qPCR method relative to beta-actin; format: functional
# [14] = tested on: SK-N-SH; test: Effect on IFNG mRNA expression in human SK-N-SH cells at EC10 by qPCR method relative to beta-actin; format: functional
# [15] = tested on: U-118-MG; test: Effect on BCL2 mRNA expression in human U118MG cells at EC10 by qPCR method relative to beta-actin; format: functional
# [16] = tested on: SK-N-SH; test: Effect on VCAM1 mRNA expression in human SK-N-SH cells at EC10 by qPCR method relative to beta-actin; format: functional
# [17] = tested on: SK-N-SH; test: Effect on CYP19A1 mRNA expression in human SK-N-SH cells at EC10 by qPCR method relative to beta-actin; format: functional
# [18] = tested on: SH-SY5Y; test: Effect on VEGFA mRNA expression in human SH-SY5Y cells at EC10 by qPCR method relative to beta-actin; format: functional
# [19] = tested on: U-118-MG; test: Effect on NOS2 mRNA expression in human U118MG cells at EC10 by qPCR method relative to beta-actin; format: functional
# [20] = tested on: SH-SY5Y; test: Effect on GRM1 mRNA expression in human SH-SY5Y cells at EC10 by qPCR method relative to beta-actin; format: functional
# [21] = tested on: SK-N-SH; test: Effect on FGF2 mRNA expression in human SK-N-SH cells at EC10 by qPCR method relative to beta-actin; format: functional
# [22] = tested on: SK-N-SH; test: Effect on COL1A1 mRNA expression in human SK-N-SH cells at EC10 by qPCR method relative to beta-actin; format: functional
# [23] = Cytotoxicity against human U118MG cells measured after 24 hrs by crystal-violet staining based assay; format: toxicity, cell-based; details: u-118-mg
# [24] = tested on: SK-N-SH; test: Effect on MMP9 mRNA expression in human SK-N-SH cells at EC10 by qPCR method relative to beta-actin; format: functional
# [25] = tested on: U-118-MG; test: Effect on IL6 mRNA expression in human U118MG cells at EC10 by qPCR method relative to beta-actin; format: functional
# [26] = tested on: U-118-MG; test: Effect on S1PR1 mRNA expression in human U118MG cells at EC10 by qPCR method relative to beta-actin; format: functional
# [27] = tested on: SH-SY5Y; test: Effect on BCL2 mRNA expression in human SH-SY5Y cells at EC10 by qPCR method relative to beta-actin; format: functional
# [28] = tested on: SK-N-SH; test: Effect on STAT3 mRNA expression in human SK-N-SH cells at EC10 by qPCR method relative to beta-actin; format: functional
# [29] = tested on: SK-N-SH; test: Effect on GRM1 mRNA expression in human SK-N-SH cells at EC10 by qPCR method relative to beta-actin; format: functional
# [30] = tested on: SK-N-SH; test: Effect on S1PR3 mRNA expression in human SK-N-SH cells at EC10 by qPCR method relative to beta-actin; format: functional
# [31] = tested on: U-118-MG; test: Effect on FGF2 mRNA expression in human U118MG cells at EC10 by qPCR method relative to beta-actin; format: functional
# [32] = tested on: U-118-MG; test: Effect on AGTR2 mRNA expression in human U118MG cells at EC10 by qPCR method relative to beta-actin; format: functional
# [33] = tested on: U-118-MG; test: Effect on MMP9 mRNA expression in human U118MG cells at EC10 by qPCR method relative to beta-actin; format: functional
# [34] = tested on: U-118-MG; test: Effect on AKT1 mRNA expression in human U118MG cells at EC10 by qPCR method relative to beta-actin; format: functional
# [35] = tested on: SK-N-SH; test: Effect on AKT1 mRNA expression in human SK-N-SH cells at EC10 by qPCR method relative to beta-actin; format: functional
# [36] = tested on: SH-SY5Y; test: Effect on PIK3CG mRNA expression in human SH-SY5Y cells at EC10 by qPCR method relative to beta-actin; format: functional
# [37] = tested on: U-118-MG; test: Effect on EPHA1 mRNA expression in human U118MG cells at EC10 by qPCR method relative to beta-actin; format: functional
# [38] = tested on: U-118-MG; test: Effect on IL2 mRNA expression in human U118MG cells at EC10 by qPCR method relative to beta-actin; format: functional
# [39] = tested on: U-118-MG; test: Effect on JUN mRNA expression in human U118MG cells at EC10 by qPCR method relative to beta-actin; format: functional
# [40] = tested on: U-118-MG; test: Effect on CCL3 mRNA expression in human U118MG cells at EC10 by qPCR method relative to beta-actin; format: functional
# [41] = tested on: SK-N-SH; test: Effect on MAG mRNA expression in human SK-N-SH cells at EC10 by qPCR method relative to beta-actin; format: functional
# [42] = tested on: SH-SY5Y; test: Effect on CCL3 mRNA expression in human SH-SY5Y cells at EC10 by qPCR method relative to beta-actin; format: functional
# [43] = tested on: SH-SY5Y; test: Effect on MAG mRNA expression in human SH-SY5Y cells at EC10 by qPCR method relative to beta-actin; format: functional
# [44] = tested on: U-118-MG; test: Effect on CXCL10 mRNA expression in human U118MG cells at EC10 by qPCR method relative to beta-actin; format: functional
smiles,measurement,setting,value
CCCCCCCCn1nnnc1CCC(N)(CO)CO.Cl,fold change (FC),[1],-2.8938
same,fold change (FC),[2],3.2561
same,fold change (FC),[3],-4.939
same,fold change (FC),[4],-4.1285
same,fold change (FC),[5],-3.1434
same,fold change (FC),[6],-6.9253
same,fold change (FC),[7],-5.0669
same,fold change (FC),[8],-2.5755
same,fold change (FC),[9],-3.8822
same,fold change (FC),[10],-4.3526
same,fold change (FC),[11],-4.5938
same,fold change (FC),[12],4.7801
same,fold change (FC),[13],4.4344
same,fold change (FC),[14],-3.6601
same,fold change (FC),[15],-4.6127
same,fold change (FC),[16],-5.4618
same,fold change (FC),[17],-5.5959
same,fold change (FC),[18],-6.1896
same,fold change (FC),[19],-4.0673
same,fold change (FC),[20],-4.806
same,fold change (FC),[21],-6.7243
same,fold change (FC),[22],-3.842
same,EC10,[23],540 nM
same,fold change (FC),[24],-5.1049
same,fold change (FC),[25],-4.7651
same,fold change (FC),[26],-4.1312
same,fold change (FC),[27],-4.8227
same,fold change (FC),[28],-5.0696
same,fold change (FC),[29],-5.0346
same,fold change (FC),[30],-4.0052
same,fold change (FC),[31],-4.6964
same,fold change (FC),[32],4.8726
same,fold change (FC),[33],-4.4691
same,fold change (FC),[34],-2.6892
same,fold change (FC),[35],-5.3124
same,fold change (FC),[36],-3.5167
same,fold change (FC),[37],-4.2116
same,fold change (FC),[38],-4.2107
same,fold change (FC),[39],-5.0916
CCCCCCCCn1nnnc1-c1ccc(C(O)CC(N)(CO)CO)cc1.Cl (centres undefined),fold change (FC),[40],-3.7241
same,fold change (FC),[41],3.9862
same,fold change (FC),[6],-3.6999
same,fold change (FC),[42],-2.4869
same,fold change (FC),[8],-3.7208
same,fold change (FC),[9],-4.2208
same,fold change (FC),[43],2.631
same,EC10,[23],360 nM
same,fold change (FC),[25],-4.3829
same,fold change (FC),[26],-3.8312
same,fold change (FC),[30],-4.5159
same,fold change (FC),[33],-4.5002
same,fold change (FC),[38],-4.5247
same,fold change (FC),[44],-4.8547
CCCCCCCCc1ccc(CCC(N)(CO)CO)cc1 [FINGOLIMOD],fold change (FC),[40],-3.4017
same,fold change (FC),[1],-5.5022
same,fold change (FC),[41],3.5508
same,fold change (FC),[2],4.9782
same,fold change (FC),[3],-5.0806
same,fold change (FC),[4],-4.9203
same,fold change (FC),[5],-13.7609
same,fold change (FC),[6],-3.6601
same,fold change (FC),[42],-4.8232
same,fold change (FC),[7],-4.508
same,fold change (FC),[9],-4.5217
same,fold change (FC),[10],-6.7945
same,fold change (FC),[11],-3.7491
same,fold change (FC),[12],-4.0629
same,fold change (FC),[13],3.242
same,fold change (FC),[14],-6.428
same,fold change (FC),[15],-4.7035
same,fold change (FC),[16],-7.0341
same,fold change (FC),[17],-7.2069
same,fold change (FC),[18],-4.3696
same,fold change (FC),[19],-5.6458
same,fold change (FC),[20],-20.6061
same,fold change (FC),[43],4.3772
same,fold change (FC),[21],-7.3456
same,fold change (FC),[22],-3.7305
same,EC10,[23],610 nM
same,fold change (FC),[24],-13.1489
same,fold change (FC),[25],-4.4847
same,fold change (FC),[26],-4.1044
same,fold change (FC),[27],-4.2945
same,fold change (FC),[28],-8.0243
same,fold change (FC),[29],-4.8631
same,fold change (FC),[31],-4.2052
same,fold change (FC),[32],4.8347
same,fold change (FC),[33],-6.3039
same,fold change (FC),[34],-2.5763
same,fold change (FC),[35],-12.2684
same,fold change (FC),[36],-5.6081
same,fold change (FC),[37],-3.7679
same,fold change (FC),[39],-3.0183
same,fold change (FC),[44],-8.4782
